Tests used:
Assay type in all cases: in vivo
[1] = tested on: Diabrotica balteata; assay: Diabrotica balteata (corn root worm) artificial diet test; conditions: 120 h, 200 ppm (concentration in well 18 ppm), L2 larvae, larval mortality and growth regulation after 5 days
Description: (§1) Diabrotica balteata (Corn Root Worm): A 24-well microtiter plate (MTP) with artificial diet was treated with test solutions at an application rate of 200 ppm (concentration in well 18 ppm) by pipetting. After drying, the MTPs were infested with L2 larvae (6-10 per well). After an incubation period of 5 days, samples were checked for larval mortality and growth regulation.

[2] = tested on: Spodoptera littoralis; assay: Spodoptera littoralis (Egyptian cotton leafworm) cotton leaf disc test; conditions: foliar, 72 h, 200 ppm sprayed on cotton leaf discs, mortality, feeding behavior, growth regulation 3 days after treatment
Description: Spodoptera littoralis (Egyptian Cotton Leafworm): Cotton leaf discs were placed on agar in a 24-well microtiter plate and sprayed with test solutions at an application rate of 200 ppm. After drying, the leaf discs were infested with […]. The samples were checked for mortality, feeding behavior, and growth regulation 3 days after treatment (DAT).

[3] = tested on: Heliothis virescens; assay: Heliothis virescens (tobacco budworm) egg test on artificial diet; conditions: 96 h, 200 ppm (concentration in well 18 ppm), eggs on artificial diet, egg mortality, larval mortality, growth regulation after 4 days
Description: Heliothis virescens (Tobacco Budworm): Eggs (0-24 h old) were placed in 24-well microtiter plate on artificial diet and treated with test solutions at an application rate of 200 ppm (concentration in well 18 ppm) by pipetting. After an incubation period of 4 days, samples were checked for egg mortality, larval mortality, and growth regulation.

[4] = tested on: Thrips tabaci; assay: Thrips tabaci (onion thrips) sunflower leaf disc test; conditions: foliar, 168 h, 200 ppm sprayed on sunflower leaf discs, mixed ages, mortality after 7 days
Description: Thrips tabaci (Onion Thrips): Sunflower leaf discs were placed on agar in a 24-well microtiter plate and sprayed with test solutions at an application rate of 200 ppm. After drying, the leaf discs were infested with a thrips population of mixed ages. After an incubation period of 7 days, samples were checked for mortality.

[5] = tested on: Tetranychus urticae; assay: Tetranychus urticae (two-spotted spider mite) bean leaf disc test; conditions: foliar, 192 h, 200 ppm sprayed on bean leaf discs, mixed ages, egg, larval and adult mortality 8 days later
Source text: Tetranychus urticae (Two-Spotted Spider Mite): Bean leaf discs on agar in 24-well microtiter plates were sprayed with test solutions at an application rate of 200 ppm. After drying, the leaf discs are infested with mite populations of mixed ages. 8 days later, discs are checked for egg mortality, larval mortality, and adult mortality.

[6] = tested on: Plutella xylostella; assay: Plutella xylostella (diamond back moth) artificial diet test; conditions: 144 h, 200 ppm (concentration in well 18 ppm), L2 larvae, larval mortality and growth regulation after 6 days
Description: as §1, with “Plutella xylostella (Diamond Back Moth):” for “Diabrotica balteata (Corn Root Worm): A”, “(7-12” for “(6-10”, “6” for “5”

Measured: pest or weed control at 200 ppm

Cc1cc(C2=NSC(c3cc(Cl)cc(Cl)c3)(C(F)(F)F)C2)ccc1C(=O)NCCC1OCCO1 (stereo not shown) [Compound A54]
≥ 80%: all assays above

Cc1csc(NC(=O)c2ccc(C3=NSC(c4cc(Cl)cc(Cl)c4)(C(F)(F)F)C3)cc2C)n1 (stereo not shown) [Compound A18]
≥ 80%: all assays above

Cc1cc(C2=NSC(c3cc(Cl)cc(Cl)c3)(C(F)(F)F)C2)ccc1C(=O)Nc1cncnc1 (stereo not shown) [Compound A48]
≥ 80%: all assays above

COc1ccc(CNC(=O)c2ccc(C3=NSC(c4cc(Cl)cc(Cl)c4)(C(F)(F)F)C3)cc2C)cc1 (stereo not shown) [Compound A13]
≥ 80%: all assays above

CCCNC(=O)c1ccc(C2=NSC(c3cc(Cl)cc(Cl)c3)(C(F)(F)F)C2)cc1C (stereo not shown) [Compound A36]
≥ 80%: all assays above

Cc1ccc(NC(=O)c2ccc(C3=NSC(c4cc(Cl)cc(Cl)c4)(C(F)(F)F)C3)cc2C)cc1 (stereo not shown) [Compound A64]
not listed: [5]
≥ 80%: all other assays above

Cc1cc(C2=NSC(c3cc(Cl)cc(Cl)c3)(C(F)(F)F)C2)ccc1C(=O)NC1CCSC1 (stereo not shown) [Compound A27]
≥ 80%: all assays above

Cc1cc(C2=NSC(c3cc(Cl)cc(Cl)c3)(C(F)(F)F)C2)ccc1C(=O)NC1=NCCS1 (stereo not shown) [Compound A44]
≥ 80%: [1] | [2] | [3] | [6]

COCCNC(=O)c1ccc(C2=NSC(c3cc(Cl)cc(Cl)c3)(C(F)(F)F)C2)cc1C (stereo not shown) [Compound A51]
≥ 80%: all assays above

Cc1cc(NC(=O)c2ccc(C3=NSC(c4cc(Cl)cc(Cl)c4)(C(F)(F)F)C3)cc2C)n(C)n1 (stereo not shown) [Compound A17]
≥ 80%: all assays above

Cc1cc(C2=NSC(c3cc(Cl)c(Cl)c(Cl)c3)(C(F)(F)F)C2)ccc1C(=O)NC1C[S+]([O-])C1 (stereo not shown) [Compound D3, 2-methyl-N-(1-oxothietan-3-yl)-4-[5-(3,4,5-trichlorophenyl)-5-(trifluoromethyl)-4H-isothiazol-3-yl]benzamide]
≥ 80%: all assays above

Cc1cc(C2=NSC(c3cc(Cl)cc(Cl)c3)(C(F)(F)F)C2)ccc1C(=O)NCC(F)F (stereo not shown) [Compound A42]
≥ 80%: all assays above

Cc1cc(C2=NSC(c3cc(Cl)cc(Cl)c3)(C(F)(F)F)C2)ccc1C(=O)NCc1ccccc1 (stereo not shown) [Compound A10]
≥ 80%: all assays above

Cc1cc(C2=NSC(c3cc(Cl)cc(Cl)c3)(C(F)(F)F)C2)ccc1C(=O)NCC1CSC1 (stereo not shown) [Compound A28]
≥ 80%: all assays above

Cc1cc(C2=NSC(c3cc(Cl)cc(Cl)c3)(C(F)(F)F)C2)ccc1C(=O)Nc1cccc(F)c1 (stereo not shown) [Compound A15]
≥ 80%: all assays above

Cc1cc(C2=NSC(c3cc(Cl)cc(Cl)c3)(C(F)(F)F)C2)ccc1C(=O)Nc1ccc(C(F)(F)F)cc1 (stereo not shown) [Compound A58]
not listed: [5]
≥ 80%: all other assays above

CCN(CC)C(=O)c1cccc(NC(=O)c2ccc(C3=NSC(c4cc(Cl)cc(Cl)c4)(C(F)(F)F)C3)cc2C)n1 (stereo not shown) [Compound A49]
not listed: [4]
≥ 80%: all other assays above

Cc1cc(C2=NSC(c3cc(Cl)cc(Cl)c3)(C(F)(F)F)C2)ccc1C(=O)NCc1ccc(C(F)(F)F)cc1 (stereo not shown) [Compound A57]
not listed: [4]
≥ 80%: all other assays above

CSCC(C)(C)NC(=O)c1ccc(C2=NSC(c3cc(Cl)cc(Cl)c3)(C(F)(F)F)C2)cc1C (stereo not shown) [Compound A20]
not listed: [4]
≥ 80%: all other assays above

Cc1cc(C2=NSC(c3cc(Cl)cc(Cl)c3)(C(F)(F)F)C2)ccc1C(=O)Nc1cc[n+]([O-])cc1 (stereo not shown) [Compound A41]
≥ 80%: [2] | [3] | [6]

Cc1cc(C2=NSC(c3cc(Cl)cc(Cl)c3)(C(F)(F)F)C2)ccc1C(=O)Nc1ccccn1 (stereo not shown) [Compound A56]
not listed: [5]
≥ 80%: all other assays above

Cc1cc(C)nc(NC(=O)c2ccc(C3=NSC(c4cc(Cl)cc(Cl)c4)(C(F)(F)F)C3)cc2C)n1 (stereo not shown) [Compound A47]
≥ 80%: [2]

Cc1cc(C2=NSC(c3cc(Cl)cc(Cl)c3)(C(F)(F)F)C2)ccc1C(=O)NC1CCSC1=O (stereo not shown) [Compound A37]
not listed: [4]
≥ 80%: all other assays above

— patent publication US9078444B2, “Isothiazoline derivatives as insecticidal compounds” (Syngenta Participations AG, priority 2011, dated 2015)
